{"source": "patent US20250177378A1", "about": "“TREATMENT OF DEPRESSION” (priority 2022, published 2025)", "key": {"[1]": {"tested_on": "patients with major depressive disorder", "assay": "Phase 2 randomized double-blind trial, dextromethorphan-bupropion (45 mg/105 mg tablet) vs bupropion (105 mg tablet), twice daily, 6 weeks (NCT03595579)", "experimental": "This randomized, double-blind, multicenter, parallel-group trial evaluated dextromethorphan-bupropion versus the active comparator sustained-release bupropion in patients 18-65 years old with a diagnosis of major depressive disorder of moderate or greater severity. Patients were randomly assigned to receive either dextromethorphan-bupropion (45 mg/105 mg tablet) or bupropion (105 mg tablet), once daily for the first 3 days and twice daily thereafter, for a total of 6 weeks.\nThis was a 6-week randomized, double-blind, active-controlled phase 2 trial conducted at four sites in the United States from May 2018 to December 2018. The trial used bupropion, an approved antidepressant, as the control because it is a component of dextromethorphan-bupropion.\nThe clinical review utilized only documentation collected by the sites at screening and baseline, including a complete medical history and clinician- and patient-reported outcome measures (described below, under Efficacy Assessments). […] In order to reduce investigator expectation bias and therefore placebo response, sites were blinded to the primary efficacy variable and the presence of an independent assessor. Sites were provided a blinded protocol that presented the trial as a safety study with exploratory efficacy assessments. Detailed discussion of the efficacy analysis was limited to the statistical analysis plan, which was not provided to the sites.\nThe study evaluated patients 18-65 years of age with a confirmed diagnosis of major depressive disorder and a current major depressive episode of moderate or greater severity. The diagnosis was established using the DSM-5 criteria for major depressive disorder without psychotic features, based on the Structured Clinical Interview for DSM-5, Clinical Trials Version, and the site investigator's rating of a score ≥25 on the Montgomery-Åsberg Depression Rating Scale (MADRS) and a score ≥4 on the Clinical Global Impressions severity scale (CGI-S). Confirmation of the diagnosis of major depressive disorder and a current major depressive episode of moderate or greater severity was performed by a blinded independent assessor based on a clinical review prior to database lock and study unblinding.\nThe screening period was up to 4 weeks to allow for any needed taper and washout of prior medications.\nParticipants were randomized in a 1:1 ratio to receive oral treatment with either dextromethorphan-bupropion or sustained-release bupropion. In order to blind site investigators to the independent confirmation of diagnosis, all patients deemed eligible by the site investigators were randomized to receive study medication and were included in the safety population. As prespecified, patients whose diagnosis or severity was not confirmed by the independent assessor were excluded from the efficacy population.\nDextromethorphan-bupropion tablets and bupropion tablets were identical in appearance. The randomization schedule was computer generated using a permuted block algorithm that randomly allocated study drug to randomization numbers.\nThe double-blind treatment period was 6 weeks. Patients received their assigned study medication, dextromethorphan-bupropion (45 mg/105 mg tablet) or bupropion (105 mg tablet), once daily for the first 3 days and twice daily thereafter. The bupropion dosage in the control arm (210 mg daily) was selected to match the dosage incorporated in dextromethorphan-bupropion, enabling an appropriate comparison. During the treatment period, patients tracked their mood daily by completing a daily visual analogue mood scale. Study visits occurred 1, 2, 3, 4, and 6 weeks after the baseline visit. A safety follow-up visit occurred at week 7, 1 week after the last dose of study medication. There were no formal discontinuation criteria; patients were free to withdraw consent for any reason, and investigators were free to remove a patient from the study for any safety-related reason."}, "[2]": {"tested_on": "individuals with MDD", "details": "switch strategy; cited from earlier work"}, "[3]": {"tested_on": "patients with depression", "details": "150 mg/day or 300 mg/day, week 8; cited from earlier work"}, "[4]": {"assay": "Pharmacokinetics of dextromethorphan, bupropion and metabolites after administration of the subject combination"}}, "note": "Values joined by “and” are separate entries in the source; they are usually repeats but may differ in a detail not shown here. Equal values may be shown once."}
{"smiles": "CC(NC(C)(C)C)C(=O)c1cccc(Cl)c1", "note": "(racemic) [bupropion]", "values": [{"measurement": "Adverse event leading to discontinuation of study drug, patients", "setting": "[1]; human, in vivo, 6 weeks", "result": 12.5, "unit": "%"}, {"measurement": "Anxiety, patients", "setting": "[1]; human, in vivo, 6 weeks", "result": 2.1, "unit": "%"}, {"measurement": "Any adverse event, patients", "setting": "[1]; human, in vivo, 6 weeks", "result": 64.6, "unit": "%"}, {"measurement": "Decreased appetite, patients", "setting": "[1]; human, in vivo, 6 weeks", "result": 8.3, "unit": "%"}, {"measurement": "Dizziness, patients", "setting": "[1]; human, in vivo, 6 weeks", "result": 4.2, "unit": "%"}, {"measurement": "Dry mouth, patients", "setting": "[1]; human, in vivo, 6 weeks", "result": 8.3, "unit": "%"}, {"measurement": "Nausea, patients", "setting": "[1]; human, in vivo, 6 weeks", "result": 12.5, "unit": "%"}, {"measurement": "Serious adverse event, patients", "setting": "[1]; human, in vivo, 6 weeks", "result": 0.0, "unit": "%"}, {"measurement": "Severe adverse event, patients", "setting": "[1]; human, in vivo, 6 weeks", "result": 2.1, "unit": "%"}, {"measurement": "CGI-S score, change from baseline, LS mean", "setting": "[1]; overall, weeks 1-6", "result": "−1.0"}, {"measurement": "MADRS-6 score, change from baseline, LS mean", "setting": "[1]; overall, weeks 1-6", "result": "−6.6", "unit": "points"}, {"measurement": "QIDS-SR, LS mean change from baseline", "setting": "[1]; overall, weeks 1-6", "result": "−4.8"}, {"measurement": "Patients with positive response on item 1 of the C-SSRS (wish to be dead)", "setting": "[1]; week 1", "result": "five"}, {"measurement": "CGI-S score, change from baseline, LS mean", "setting": "[1]; week 2", "result": "−0.9"}, {"measurement": "Clinical response (≥50% decrease in MADRS score from baseline), patients", "setting": "[1]; week 2", "result": 27.0, "unit": "%"}, {"measurement": "MADRS total score, change from baseline, LS mean", "setting": "[1]; week 2", "result": "−7.8", "unit": "points"}, {"measurement": "MADRS-6 score, change from baseline, LS mean", "setting": "[1]; week 2", "result": "−6.0"}, {"measurement": "Remission (MADRS score ≤10), patients", "setting": "[1]; week 2", "result": "2.7% and 3%"}, {"measurement": "CGI-S score, change from baseline, LS mean", "setting": "[1]; week 6", "result": "−1.5"}, {"measurement": "Clinical response (≥50% decrease in MADRS score from baseline), patients", "setting": "[1]; week 6", "result": 40.5, "unit": "%"}, {"measurement": "MADRS total score, change from baseline, LS mean", "setting": "[1]; week 6", "result": "−12.1", "unit": "points"}, {"measurement": "MADRS-6 score, change from baseline, LS mean", "setting": "[1]; week 6", "result": "−8.7"}, {"measurement": "Patients with positive response on item 1 of the C-SSRS (wish to be dead)", "setting": "[1]; week 6", "result": "one"}, {"measurement": "Remission (MADRS score ≤10), patients", "setting": "[1]; week 6", "result": 16.2, "unit": "%"}, {"measurement": "Remission on the QIDS-SR (score ≤5), patients", "setting": "[1]; week 6", "result": 21.6, "unit": "%"}, {"measurement": "Reduction from baseline in MADRS total score", "setting": "[1]; week 6, bupropion arm 210 mg/day", "result": 12, "unit": "points"}, {"measurement": "Remission rate, second line treatment following non-remission with an SSRI", "setting": "[2]", "result": "about 25%"}, {"measurement": "Reduction from baseline in Hamilton Depression Rating Scale (HAM-D) score", "setting": "[3]", "result": "approximately 10 points"}]}
{"smiles": "COc1ccc2c(c1)[C@]13CCCC[C@@H]1[C@H](C2)N(C)CC3", "note": "[dextromethorphan]", "values": [{"measurement": "Increase of mean elimination half-life vs dextromethorphan given without bupropion", "setting": "[4]; 8 consecutive days of the subject combination, extensive metabolizers", "result": "approximately 3 fold"}, {"measurement": "AUC0-12 decrease when administered with food", "setting": "[4]; subject combination with food", "result": 14, "unit": "%"}, {"measurement": "Cmax change when administered with food", "setting": "[4]; subject combination with food", "result": "unchanged"}]}
{"smiles": "CN[C@H]1CC[C@@H](c2ccc(Cl)c(Cl)c2)c2ccccc21", "note": "[sertraline]", "values": [{"measurement": "Remission rate, second line treatment following non-remission with an SSRI", "setting": "[2]", "result": "about 25%"}]}
{"smiles": "COc1ccc(C(CN(C)C)C2(O)CCCCC2)cc1", "note": "(stereo not drawn) [venlafaxine]", "values": [{"measurement": "Remission rate, second line treatment following non-remission with an SSRI", "setting": "[2]", "result": "about 25%"}]}
